Laboratory results as given in article PMC10452266, “Divergent Pharmacology and Biased Signaling of the Four Melanocortin-4 Receptor Isoforms in Rainbow Trout (Oncorhynchus mykiss)” (Biomolecules, 2023).
Read-outs that look alike come from different tables or passages of the source. Blank lines part the entries; values can stand above or below the compound they belong to.

Columns and labels:
[1] = target: T1, hMC4R (Homo sapiens, UniProt P32245); experiment: Ligand-binding assay (displacement of 125I-NDP-MSH), hMC4R
T1 construct: expressed in transfected cells; host or cells: HEK293T
Protocol: (§1) Cells were plated into 24-well or 6-well plates pre-coated with 0.1% gelatin and transfected with plasmids by the calcium phosphate precipitation method.
A binding assay was conducted as described previously.
Binding assays were used to investigate the binding properties of omMc4rs. […] Data are expressed as % of hMC4R binding ± range from duplicate measurements within one experiment. The curves are representative of at least three independent experiments.

[2] = target: T1, hMC4R; details: cited from earlier work
[3] = tested on: omMc4ra2; experiment: ERK1/2 phosphorylation assay, omMc4ra2; format: cell-based, rainbow trout (Oncorhynchus mykiss); details: 1 μM α-MSH, 10 nM AgRP, 1 μM MCL0020, 1 μM Ipsen 5i or 1 μM ML00253764, 5 min, HEK293T, Western blot, at least three independent experiments
Protocol: (§2) Human Embryonic Kidney (HEK) 293T cells, provided by American Type Culture Collection (Manassas, VA, USA), were cultured as described previously. Cells were plated into 24-well or 6-well plates pre-coated with 0.1% gelatin and transfected with plasmids by the calcium phosphate precipitation method.
(§3) HEK293T cells were transfected with omMC4Rs. Twenty-four hours after transfection, cells were washed twice and starved in media without serum for 24 h. […] Rabbit anti-pERK1/2 antibody (Catalog #4370, Cell Signaling, Beverly, MA, USA) and mouse anti-β-tubulin antibody (Developmental Studies Hybridoma Bank, University of Iowa, Iowa City, IA, USA) were used in this study. The bound antibodies were quantified using ImageJ 1.44 software (National Institute of Health, Bethesda, MD, USA).
(§4) Figure 9 ERK1/2 signaling properties of trout Mc4rs. (A) Immunoblots of pERK1/2 in cells expressing omMc4ra1, omMc4ra2, omMc4rb1, or omMc4rb2. HEK293T cells were transiently transfected with omMc4ra1, omMc4ra2, omMc4rb1, omMc4rb2, or empty vector plasmids and were starved overnight 24 h after transfection. […] Western blots were performed as described in Materials and Methods. (B) Densitometry results of basal pERK1/2 levels of omMc4ra1, omMc4ra2, omMc4rb1, and omMc4rb2. (C) Densitometry results of pERK1/2 level of omMc4ra1. (D) Densitometry results of pERK1/2 level of omMc4ra2. […]

[4] = tested on: omMc4rb2; experiment: Effect of antagonists on basal cAMP level, omMc4rb2; format: cell-based, rainbow trout (Oncorhynchus mykiss); details: 10 nM AgRP, 1 μM MCL0020, 1 μM ML00253764 or 1 μM Ipsen 5i, 1 h, HEK293T, RIA, three independent experiments
Protocol: as §1
(§5) Intracellular cAMP levels were determined according to previous protocol.

[5] = tested on: omMc4ra2; experiment: Effect of antagonists on basal cAMP level, omMc4ra2; format: cell-based, rainbow trout (Oncorhynchus mykiss); details: 10 nM AgRP, 1 μM MCL0020, 1 μM ML00253764 or 1 μM Ipsen 5i, 1 h, HEK293T, RIA, three independent experiments
Protocol: as §1, §5

[6] = tested on: ciMc4r; details: ref [51]; cited from earlier work
[7] = tested on: ciMc4r; details: ref [51]; cited from earlier work; remark: listed apart in the source
Text: (§6) Numerous constitutively active mutants have been reported in several GPCRs, resulting in various human diseases, and inverse agonism will be vital for correcting the diseases caused by activating mutations in GPCRs. The constitutive activity of teleost Mc4r may have important physiological functions.

[8] = tested on: saMc4r; details: ref [51]; cited from earlier work
Text: as §6

[9] = tested on: omMc4rb2; experiment: Ligand-binding assay (displacement of 125I-NDP-MSH), omMc4rb2; design: species or system rainbow trout (Oncorhynchus mykiss); details: AgRP 10^-12 to 10^-7 M, MCL0020 and Ipsen 5i 10^-11 to 10^-6 M, ML00253764 10^-10 to 10^-5 M, transfected HEK293T cells
Protocol: as §2
(§7) A binding assay was conducted as described previously. […].
(§8) Binding assays were used to investigate the binding properties of omMc4rs. […].  Figure 6 Ligand-binding properties of omMc4rs. […]. Data are expressed as % of hMC4R binding ± range from duplicate measurements within one experiment. The curves are representative of at least three independent experiments.

[10] = target: T1, hMC4R; details: ref [51]; cited from earlier work
[11] = tested on: omMc4ra1; experiment: Effect of antagonists on basal cAMP level, omMc4ra1; format: cell-based, rainbow trout (Oncorhynchus mykiss); details: 10 nM AgRP, 1 μM MCL0020, 1 μM ML00253764 or 1 μM Ipsen 5i, 1 h, HEK293T, RIA, three independent experiments
Protocol: as §1, §5

[12] = tested on: saMc4r; details: ref [51]; cited from earlier work; remark: listed apart in the source
[13] = tested on: omMc4ra1; experiment: ERK1/2 phosphorylation assay, omMc4ra1; format: cell-based, rainbow trout (Oncorhynchus mykiss); details: 1 μM α-MSH, 10 nM AgRP, 1 μM MCL0020, 1 μM Ipsen 5i or 1 μM ML00253764, 5 min, HEK293T, Western blot, at least three independent experiments
Protocol: as §2, §3, §4

[14] = tested on: omMc4rb2; experiment: ERK1/2 phosphorylation assay, omMc4rb2; format: cell-based, rainbow trout (Oncorhynchus mykiss); details: 1 μM α-MSH, 10 nM AgRP, 1 μM MCL0020, 1 μM Ipsen 5i or 1 μM ML00253764, 5 min, HEK293T, Western blot, at least three independent experiments
Protocol: as §2, §3, §4

[15] = tested on: omMc4rb1; experiment: Effect of antagonists on basal cAMP level, omMc4rb1; format: cell-based, rainbow trout (Oncorhynchus mykiss); details: 10 nM AgRP, 1 μM MCL0020, 1 μM ML00253764 or 1 μM Ipsen 5i, 1 h, HEK293T, RIA, three independent experiments
Protocol: as §1, §5

[16] = tested on: omMc4ra2; experiment: Ligand-binding assay (displacement of 125I-NDP-MSH), omMc4ra2; design: species or system rainbow trout (Oncorhynchus mykiss); details: AgRP 10^-12 to 10^-7 M, MCL0020 and Ipsen 5i 10^-11 to 10^-6 M, ML00253764 10^-10 to 10^-5 M, transfected HEK293T cells
Protocol: as §2, §7, §8

[17] = target: omMc4rb1; experiment: Ligand-binding assay (displacement of 125I-NDP-MSH), omMc4rb1; design: species or system rainbow trout (Oncorhynchus mykiss); details: displacement of 125I-NDP-MSH, transiently transfected HEK293T cells, 48 h after transfection, mean ± SEM of at least three independent experiments
Protocol: as §2, §7, §8

[18] = tested on: omMc4ra1; experiment: Ligand-binding assay (displacement of 125I-NDP-MSH), omMc4ra1; design: species or system rainbow trout (Oncorhynchus mykiss); details: AgRP 10^-12 to 10^-7 M, MCL0020 and Ipsen 5i 10^-11 to 10^-6 M, ML00253764 10^-10 to 10^-5 M, transfected HEK293T cells
Protocol: as §2, §7, §8

[19] = tested on: omMc4rb1; experiment: ERK1/2 phosphorylation assay, omMc4rb1; format: cell-based, rainbow trout (Oncorhynchus mykiss)
Protocol: as §2, §3
Figure 9 ERK1/2 signaling properties of trout Mc4rs. (A) Immunoblots of pERK1/2 in cells expressing omMc4ra1, omMc4ra2, omMc4rb1, or omMc4rb2. HEK293T cells were transiently transfected with omMc4ra1, omMc4ra2, omMc4rb1, omMc4rb2, or empty vector plasmids and were starved overnight 24 h after transfection. […] Western blots were performed as described in Materials and Methods. (B) Densitometry results of basal pERK1/2 levels of omMc4ra1, omMc4ra2, omMc4rb1, and omMc4rb2. (C) Densitometry results of pERK1/2 level of omMc4ra1. (D) Densitometry results of pERK1/2 level of omMc4ra2. (E) Densitometry results of pERK1/2 level of omMc4rb1. (F) Densitometry results of pERK1/2 level of omMc4rb2.

[20] = tested on: ciMc4r; details: ciMc4r (grass carp); ref [48],[51],[81]; cited from earlier work
Text: (§9) MC4R-mediated ERK1/2 signaling has a crucial role in the modulation of energy homeostasis. Although teleost Mc4rs have much higher basal activities in Gs-cAMP signaling, constitutive activation of ERK1/2 signaling is only observed in topmouth culter Mc4r but not in saMc4r and ciMc4r. […] Our data documented that these three compounds only activated ERK1/2 signaling of omMc4rb1 but not the other three omMc4rs (Figure 9).

[21] = tested on: saMc4r; details: saMc4r (spotted scat); ref [48],[51],[81]; cited from earlier work
Text: as §9

[22] = target: T1, hMC4R; details: ref [48],[51],[81]; cited from earlier work
Text: as §9

T1 sequence (P32245 whole entry): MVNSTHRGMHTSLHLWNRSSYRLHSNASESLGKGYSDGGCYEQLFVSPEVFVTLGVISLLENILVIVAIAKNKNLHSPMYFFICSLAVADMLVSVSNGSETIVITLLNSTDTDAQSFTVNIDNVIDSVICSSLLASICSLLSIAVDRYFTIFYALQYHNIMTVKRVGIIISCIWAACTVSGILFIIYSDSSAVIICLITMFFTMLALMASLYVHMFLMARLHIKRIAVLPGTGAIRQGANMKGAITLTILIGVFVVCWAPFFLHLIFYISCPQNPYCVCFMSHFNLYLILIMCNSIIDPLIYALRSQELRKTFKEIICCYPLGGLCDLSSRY

SMILES: CSCC[C@@H]1NC(=O)[C@H](C)NC(=O)[C@H]([C@@H](C)O)NC(=O)CNC(=O)[C@H](CC(C)C)NC(=O)[C@H](CCCCN)NC(=O)[C@H](CCCNC(=N)N)NC(=O)[C@@H]2CSSC[C@@H]3NC(=O)[C@@H]4CCCN4C(=O)[C@H](C(C)C)NC(=O)[C@H](CCC(N)=O)NC(=O)[C@H](CCC(N)=O)NC(=O)CNC(=O)[C@H](CC(C)C)NC(=O)[C@@H]4CSSC[C@H](NC(=O)[C@H]([C@@H](C)O)NC(=O)[C@H](C)NC(=O)[C@H](CSSC[C@@H](C(=O)N[C@@H](CO)C(=O)N[C@@H](CCCNC(=N)N)C(=O)N[C@H](C(=O)O)[C@@H](C)O)NC(=O)[C@@H]5CCCN5C(=O)[C@H](CC(N)=O)NC1=O)NC(=O)[C@@H]1CCCN1C(=O)[C@H](CC(=O)O)NC(=O)[C@H](CSSC[C@H](NC(=O)[C@H](CCCNC(=N)N)NC(=O)[C@H](CCCNC(=N)N)NC(=O)[C@H](CO)NC(=O)[C@@H](N)CO)C(=O)N[C@@H](C(C)C)C(=O)N[C@@H](CCCNC(=N)N)C(=O)N[C@@H](CC(C)C)C(=O)N[C@@H](Cc1c[nH]cn1)C(=O)N[C@@H](CCC(=O)O)C(=O)N[C@@H](CO)C(=O)N4)NC3=O)C(=O)N[C@@H](Cc1ccc(O)cc1)C(=O)N[C@H]1CSSC[C@H](NC(=O)[C@H](Cc3ccccc3)NC(=O)[C@H](C)NC(=O)[C@H](CC(N)=O)NC(=O)[C@H](Cc3ccccc3)NC(=O)[C@H](Cc3ccccc3)NC(=O)[C@H](CCCNC(=N)N)NC1=O)C(=O)N[C@@H](Cc1ccc(O)cc1)C(=O)N2 [AgRP]
IC50 [1]: 32.5 ± 7.76 nM

IC50 ([1]; hMC4R, displacement of 125I-NDP-MSH, transiently transfected HEK293T cells, 48 h after transfection, mean ± SEM of at least three independent experiments, read-out: IC50): 62.3 ± 4.82 nM | IC50 [17]: 305 ± 66.2 nM
SMILES: CC(=O)N[C@H](Cc1ccc2ccccc2c1)C(=O)N[C@@H](CCCNC(=N)N)C(=O)N[C@@H](Cc1ccc2ccccc2c1)C(N)=O [MCL0020, Ac-D-2-Nal-Arg-2-Nal-NH2]
basal activity of hMC4R and constitutively active mutant hMC4Rs ([2]; hMC4R and mutants, ref [1],[28],[48],[51]): reduced by inverse agonists | type of ligand at hMC4R ([2]; hMC4R, ref [51],[56],[79]): neutral antagonist of hMC4R | effect on ERK1/2 phosphorylation [3]: no effect | effect on basal cAMP level [4]: no significant effect | effect on basal cAMP level [5]: no significant effect | NDP-MSH displacement [6]: replaces NDP-MSH binding | NDP-MSH-induced cAMP generation [7]: antagonizes NDP-MSH-induced cAMP generation | basal cAMP production [7]: decreases the basal cAMP production of ciMc4r | basal and ligand-induced cAMP levels [8]: no effect on basal and ligand-induced cAMP levels | displacement of 125I-NDP-MSH binding [9]: only displaced ^125I-NDP-MSH binding to hMC4R and omMc4rb1 | NDP-MSH displacement [10]: replaces NDP-MSH binding | effect on basal cAMP level [11]: no significant effect | NDP-MSH displacement [12]: replaces NDP-MSH binding | effect on ERK1/2 phosphorylation [13]: not by ML00253764, Ipsen 5i, or MCL0020 | effect on ERK1/2 phosphorylation [14]: no effect | effect on basal cAMP level [15]: no significant effect | displacement of 125I-NDP-MSH binding [16]: only displaced ^125I-NDP-MSH binding to hMC4R and omMc4rb1 | displacement of 125I-NDP-MSH binding [18]: only displaced ^125I-NDP-MSH binding to hMC4R and omMc4rb1 | effect on ERK1/2 phosphorylation ([19]; 1 μM α-MSH, 10 nM AgRP, 1 μM MCL0020, 1 μM Ipsen 5i or 1 μM ML00253764, 5 min, HEK293T, Western blot, at least three independent experiments): significantly increased | biased signaling, cAMP versus ERK1/2 ([19]; concluded from binding, cAMP and pERK1/2 results): biased allosteric modulators for omMc4rb1 with selective activation on ERK1/2 signaling | biased signaling, Gs-cAMP versus ERK1/2 [20]: preferred activation on ERK1/2 signaling | biased signaling, Gs-cAMP versus ERK1/2 [21]: preferred activation on ERK1/2 signaling | biased signaling, Gs-cAMP versus ERK1/2 [22]: preferred activation on ERK1/2 signaling
